Results taken from patent US10201558B2, “Compositions of selenoorganic compounds and methods of use thereof” (Alltech, Inc., priority 2014, dated 2019).
Entries after “also recorded” stand apart in the source; their conditions may differ.

Key:
PSEN2 = PSEN2 expression in IMR-32 cells; format: cell-based, human
[1] = test system: phosphorylated Tau (pTau S396, pTau S400/T403/S404); assay: Western blot of phosphorylated Tau in IMR-32 cells; format: cell-based, human; settings: 150 ppb, 24 hours
Experimental: (§1) IMR-32 cells were seeded on 6-well plates and then treated with control and various compounds for 6 hours and 24 hours, as described above. After treatments, cells were rinsed with ice-cold PBS and lysed in ice-cold RIPA buffer containing complete proteinase and phosphatase inhibitors (Thermo-Fisher Scientific, Waltham, Mass.) on ice for 30 min Cell lysates were collected using a cell scraper and transfer pipette and then centrifuged at 12000×g for 30 min at 4° C. to remove the DNA pellet and obtain the protein extract. Protein levels in the supernatant of these cell lysates were determined using the Pierce Micro-BCA protein assay kit (Thermo Scientific-Piece Biotechnology, Rockford, Ill.) according to the manufacturer's protocol
(§2) For Western blot analysis, five micrograms of total proteins from control (0 ppb)- and compound(s)-treated cells were subjected to SDS-PAGE gel separation and then transferred to PVDF membranes, as described previously (Reddy, Liu et al. 2008 Science). Membranes were blocked in a phosphate-buffered saline (PBS) containing 5% (w/v) of bovine serum albumin (Sigma, St. Louis, Mo.) and incubated with specific primary antibodies followed by the incubation with HRP-conjugated anti-mouse or anti-rabbit secondary antibodies (1:5000 dilution, Cell Signaling Inc.). All primary antibodies except PGC1a (Abcam, Cambridge, Mass.), G6pc (Santa Cruz, Dallas, Tex.) and Actb (Li-Cor, Lincoln, Nebr.) were purchased from Cell Signaling Inc., Beverly, Mass.
(§3) Positive signals on the membrane blots were detected using Amersham's enhanced chemiluminescence (ECL) Western Blotting Prime Detection reagents (GE healthcare Lifescience, Pittsburgh, Pa.). Images of these luminescence signals on the membrane blots were captured using the LI-COR Odyssey Fc Image system (Lincoln, Nebr.). The same membrane blot was stripped and re-blotted with another antibody as described in the GE WB ECL-prime-detection protocol (GE Healthcare Lifescience, Pittsburgh, Pa.). Protein band densities in the Western blots were determined using the Li—COR Image studio software or NIH ImageJ software, and then normalized by ACTB protein level in each sample. Data are presented as mean±SEM of three samples per each group.
To determine whether selenium Compound C, Compound D or Compound E can potentially contribute to diminished tangle formation in AD, the phosphorylation of two AD biomarkers, pTau S396 (Serine 396) and pTauS400/T403/5404 (Serine 400, Threonine 403, and Serine 404), as well as the Total Tau protein levels was assessed in IMR-32 cells. Phosphorylation of Tau at the indicated amino acid sites has been associated with destabilization of the Tau protein and the eventual formation of tangles. For this purpose, cells were treated with 150 ppb of Compound C, Compound D, or Compound E for 6 hours and 24 hours, and then subjected to Western blot analysis (see FIG. 4A). Mean±SEM, n=3.

pAKT = assay: Western blot of pAKT in IMR-32 cells; format: cell-based, human; settings: 6 hours and 24 hours
Experimental: as §1, with “protocol […]” for “protocol”
as §3, with “The same membrane blot was stripped and re-blotted with another antibody as described in the GE WB ECL-prime-detection protocol (GE Healthcare Lifescience, Pittsburgh, Pa.).” left out, “Data are presented as mean±SEM of three samples per each group.” left out

UCP2 = assay: QRT-PCR of UCP2 mRNA in IMR-32 cells; format: cell-based, human; settings: 150 ppb, 6 hours
Experimental: Human IMR-32 cells were seeded on gelatinized 6-well (6.5×10^5 cells/well) or 24-well (1.3×10^5 cells/well) plates. Cells were treated with control (0 ppb) or various compounds for 6 hours or 24 hours. Total RNA from these cells was isolated using Trizol (Invitrogen) according to the manufacturer's protocol, and then incubated with DNase I to remove any potential contaminated genomic DNA. Then RNA samples were subjected to real-time PCR analysis using the Applied-Bioscience's RT kit and predesigned Taqman probes (Invitrogen), as described previously (Lan et al EMBO J 2003). The mRNA levels of UCP1, UCP2, UCP3, SLC25A27 (UCP4), SLC25A14 (UCP5), PSEN1, Nicastrin, GSK3B, MAPK11-14, PPARG, APOE, RCAN1, RCAN1.1, G6PC, INSR, IGF1R and FOXO4 were measured. Three to six samples were analyzed in each treatment group. Data were normalized by Actin B (ACTB) or Glyceraldehyde Phosphate Dehydrogenase (GAPDH) mRNA levels in each sample and are presented as mean±SEM of 3-6 samples.

[2] = test system: phosphorylated FOXO4 (pFOXO4 T28); assay: Western blot of phosphorylated FOXO4 in IMR-32 cells; format: cell-based, human; settings: for phosphorylation of FOXO4 (pFOXO4) levels: 6 hours; for pFOXO4 Threonine 28 (T28) levels: 24 hours
Experimental: as §1, §2, §3

RCAN1.1 = assay: Western blot of RCAN1 (RCAN1.1) protein in IMR-32 cells; format: cell-based, human; settings: 150 ppb, 24 hours
Experimental: as §1, with “protocol […]” for “protocol”
as §3, with “The same membrane blot was stripped and re-blotted with another antibody as described in the GE WB ECL-prime-detection protocol (GE Healthcare Lifescience, Pittsburgh, Pa.).” left out, “Data are presented as mean±SEM of three samples per each group.” left out
The ability of selenium compounds to regulate RCAN1 expression in IMR-32 cells was also assessed. […]

[3] = test system: primary fetal rat neurons; assay: Cell survival of primary cortical neurons (cell counts); format: cell-based; settings: 150 ppb selenium compound(s), 24 hours; Control 100 ± 1.57; mixture: 30 ppb of the element from each compound
Experimental: For primary neurons, dissociated primary cortical neuron cultures were established from E-18 rat embryos as previously described (Lovell et al., Free Radic. Biol. Med. 2000; Lovell et al., Neurobiol. Aging 2001). Studies were carried out on cells 7 days in culture by switching to Locke's solution consisting of 1 mL of 154 mM NaCl, 5.6 mM KCl, 2.3 mM CaCl2, 1.0 mM MgCl2, 3.6 mM NaHCO3, 10 mM glucose, 5 mM HEPES (pH 7.2) with 10 mg/L gentamicin sulfate. Primary neurons were treated for 24 hours in Locke's solution with the indicated selenium and sulfur compounds in Table 5. Cell counts were performed to measure cell survival/toxicity.
The effects of the selenium and sulfur compounds, identified as components of water extracts of selenium-enriched yeast, on neuronal cell survival was also tested. Primary neurons isolated from fetal rat brain were incubated with chemically synthesized individual selenium and sulfur compounds that were identified as components of water extracts of selenium-enriched yeast (Table 5). In this case, the elemental concentration of each compound identified in Table 5 was 150 ppb and, where mixtures were used, the 150 ppb treatment was made up of 30 ppb of the element from each of the five compounds in question.

Total Tau = assay: Western blot of Total Tau protein in IMR-32 cells; format: cell-based, human; settings: 150 ppb, 24 hours
Experimental: as §1, with “protocol […]” for “protocol”
as §3, with “The same membrane blot was stripped and re-blotted with another antibody as described in the GE WB ECL-prime-detection protocol (GE Healthcare Lifescience, Pittsburgh, Pa.).” left out, “Data are presented as mean±SEM of three samples per each group.” left out

Compound | PSEN2 expression (PSEN2) | phosphorylation of Tau at 5400/T403/5404 [1] | phosphorylation of Tau at S396 [1] | ratio of total pTau at both S396 and S400/T403/S404 to total Tau proteins [1] | pAKT protein levels (pAKT) | UCP2 mRNA expression (UCP2) | phosphorylation of FOXO4 (pFOXO4) levels [2] | pFOXO4 Threonine 28 (T28) levels [2] | RCAN1.1 protein levels (RCAN1.1) | Viable Cell Number (Mean ± SEM, n = 6) [3] | total Tau protein level (Total Tau)
C[Se]C[C@H]1O[C@@H](n2cnc3c(N)ncnc32)C(O)C1O (stereo in doubt) [Compound C, 5′-deoxy-5′-methylselenoadenosine] | no downregulation | significantly inhibited | not at S396 | significantly attenuated | not visibly decreased | significant decrease; also recorded: inhibited | decrease | decreased | decrease | 101.1 ± 4.22 | did not affect
C[Se]C[C@H](NC(=O)CC[C@H](N)C(=O)O)C(=O)O [Compound E, γ-L-glutamyl-Se-methyl-L-selenocysteine] | no downregulation | significantly down-regulated | significantly down-regulated | trend towards reduced | not visibly decreased | did not have any effect | decrease | decreased | not Compound E | 95.69 ± 10.53 | significantly down-regulated
